Key:
[1] = Hydrogen peroxide stability in the presence of didecyldimethylammonium bicarbonate/carbonate; type: physicochemical
Source text: Hydrogen Peroxide Stability in the Presence of Didecyldimethylammonium Bicarbonate/-Carbonate

P. aeruginosa = assay: Efficacy against P. aeruginosa dried on microplate wells (growth/no growth, 4 replicates); type: cell-based; conditions: 5% fetal bovine serum; for Positive cells out of a total of 4 after 5 min: contact time 5 min, diluted in water of 400 ppm hardness, positive = ineffective disinfection; for Positive cells out of a total of 4 after 10 min: contact time 10 min; for Positive cells out of a total of 4 after 10 min / Positive cells out of a total of 4 after 11 min / Positive cells out of a total of 4 after 13 min / Positive cells out of a total of 4 after 16 min / Positive cells out of a total of 4 after 20 min / Positive cells out of a total of 4 after 21 min / Positive cells out of a total of 4 after 25 min: water of 400 ppm hardness; for Positive cells out of a total of 4 after 11 min: contact time 11 min; for Positive cells out of a total of 4 after 13 min: contact time 13 min; for Positive cells out of a total of 4 after 16 min: contact time 16 min; for Positive cells out of a total of 4 after 20 min: contact time 20 min; for Positive cells out of a total of 4 after 21 min: contact time 21 min; for Positive cells out of a total of 4 after 25 min: contact time 25 min
Protocol: All solutions were diluted in water of 400 ppm hardness and all concentrations were expressed in ppm. Each of the solutions was tested in 4 replicates as described below. The numbers in Table 2 below indicate the number of “positive” cells or ineffective disinfection of 4 replicates. Various contact times noted on the tables were evaluated.
Flat bottom microplate wells were inoculated with 15 μL each of a suspension of 10% P. aeruginosa+5% fetal bovine serum in a saline solution, 4.5×10^7 cfu/mL using a Quadra Tower 400 Series High Throughput apparatus (Tomtec Inc., Hamden, Conn.). The plates were dried with cover open for 40 minutes at 36° C. Then, 120 μL of each test substance was transferred from the deep-well block to the test wells. The test organisms were exposed to the test substance for different contact times, after which the substances were removed with the Quadra and 150 μL of modified AOAC Letheen neutralizer+0.5% Na thiosulfate/growth broth was added to each well. The microplates were incubated at 36° C. for 24 hours and scored for growth/no growth.

Compound | % Hydrogen Peroxide Concentration at Time/Temperature: 1 Month/40° C. ([1]; 1 month, 40° C.) | % Hydrogen Peroxide Concentration at Time/Temperature: 1 Month/RT ([1]; 1 month, room temperature) | % Hydrogen Peroxide Concentration at Time/Temperature: 1 Week/40° C. ([1]; 1 week, 40° C.) | % Hydrogen Peroxide Concentration at Time/Temperature: 1 Week/RT ([1]; 1 week, room temperature) | % Hydrogen Peroxide Concentration at Time/Temperature: Initial ([1]; Initial, by weight, analytical accuracy ±3% relative) | Positive cells out of a total of 4 after 5 min (P. aeruginosa) | Positive cells out of a total of 4 after 10 min (P. aeruginosa) | Positive cells out of a total of 4 after 11 min (P. aeruginosa) | Positive cells out of a total of 4 after 13 min (P. aeruginosa) | Positive cells out of a total of 4 after 16 min (P. aeruginosa) | Positive cells out of a total of 4 after 20 min (P. aeruginosa) | Positive cells out of a total of 4 after 21 min (P. aeruginosa) | Positive cells out of a total of 4 after 25 min (P. aeruginosa)
OO [3.0% H2O2, hydrogen peroxide] | 1.82% | 2.85% | 2.74% | 2.99% | 3.11% |  |  |  |  |  |  |  | 
didecyldimethylammonium carbonate/bicarbonate [Quat 500 ppm] |  |  |  |  |  | 4 | 4 | 4 | 4 | 1 | 0 | 1 | 0
OO [H2O2 2,000 ppm, hydrogen peroxide] |  |  |  |  |  | 0 | 0 | 0 | 0 | 0 | 0 | 0 | 0
OO [H2O2 600 ppm, hydrogen peroxide] |  |  |  |  |  | 4 | 4 | 2 | 0 | 0 | 0 | 0 | 0

— patent US20090004287A1, “Disinfectant formulations containing quaternary ammonium compounds and hydrogen peroxide” (priority 2007, published 2009)
